{
  "source": "paper PMC12718081",
  "about": "(ACS Infectious Diseases, 2025)",
  "key": {"Sm.TRPMMCLZ": {"test_system": "Sm.TRPMMCLZ", "experiment": "Ca2+ reporter (FLIPR) activation assay, Sm.TRPMMCLZ in HEK293 cells", "format": "cell-based, Schistosoma mansoni", "conditions": "at the tested concentrations, data not shown", "description": "(§1) Finally, selectivity for Sm.TRPMPZQ was assessed by profiling responses on the F. hepatica (Fh.TRPMPZQ) and E. granulosus (Eg.TRPMPZQ) TRPMPZQ orthologs, as well as the schistosome TRPM paralog Sm.TRPMMCLZ, a distinct TRPM channel activated by meclonazepam. Meclonazepam is an anthelmintic benzodiazepine known for its toxicity to juvenile schistosome worms.\n(§2) The Ca^2+ reporter assay was performed using a Fluorescence Imaging Plate Reader (FLIPR) system, as described in the Supporting Information. […]\n(§3) The half-maximal inhibitory\n(§4) Windows (GraphPad Software, Boston, MA, USA; www.graphpad.com). […]\n(§5) with DMSO as a negative control. […]\n(§6) reader. […] The fluorescence\n(§7) Untransfected HEK293 cells were used as a control.\n(§8) 10% fetal bovine serum (FBS). […]\n(§9) atmosphere containing 5% CO₂. Following incubation, the growth medium was removed and […]\n(§10) buffer containing 2.5 mM probenecid in HBSS (with Ca²⁺ and Mg²⁺), 20 mM HEPES, 0.3% BSA (Sigma, A7030), and 0.03% L-ascorbic acid (Sigma). Cells were incubated for 40 minutes at 37 °C and subsequently for 20 minutes at room temperature. A total of seven PZQ derivatives were tested, using racemic PZQ included as a positive control on each assay plate. Drug dilutions were prepared in assay buffer without dye and probenecid and dispensed into separate flat-bottom 384-well plates. Calcium flux measurements were performed at room temperature using a […]\n(§11) instrument (Molecular Devices). Baseline fluorescence was recorded for 20 seconds, followed by the addition of 5 µL of each drug solution, after which fluorescence was measured continuously for 250 seconds. […]"}, "Fh.TRPMPZQ": {"test_system": "Fh.TRPMPZQ", "experiment": "Ca2+ reporter (FLIPR) activation assay, Fh.TRPMPZQ in HEK293 cells", "format": "cell-based, Fasciola hepatica", "conditions": "at the tested concentrations, data not shown", "description": "as §1, §2, §3, §4, §5, §6, §7, §8, §9, §10, §11"}, "Sm.TRPMPZQ (wild-type)": {"molecular_target": "Sm.TRPMPZQ (wild-type) (Schistosoma mansoni, UniProt A0A5K4F0X5)", "sequence (A0A5K4F0X5 entry or part of it)": "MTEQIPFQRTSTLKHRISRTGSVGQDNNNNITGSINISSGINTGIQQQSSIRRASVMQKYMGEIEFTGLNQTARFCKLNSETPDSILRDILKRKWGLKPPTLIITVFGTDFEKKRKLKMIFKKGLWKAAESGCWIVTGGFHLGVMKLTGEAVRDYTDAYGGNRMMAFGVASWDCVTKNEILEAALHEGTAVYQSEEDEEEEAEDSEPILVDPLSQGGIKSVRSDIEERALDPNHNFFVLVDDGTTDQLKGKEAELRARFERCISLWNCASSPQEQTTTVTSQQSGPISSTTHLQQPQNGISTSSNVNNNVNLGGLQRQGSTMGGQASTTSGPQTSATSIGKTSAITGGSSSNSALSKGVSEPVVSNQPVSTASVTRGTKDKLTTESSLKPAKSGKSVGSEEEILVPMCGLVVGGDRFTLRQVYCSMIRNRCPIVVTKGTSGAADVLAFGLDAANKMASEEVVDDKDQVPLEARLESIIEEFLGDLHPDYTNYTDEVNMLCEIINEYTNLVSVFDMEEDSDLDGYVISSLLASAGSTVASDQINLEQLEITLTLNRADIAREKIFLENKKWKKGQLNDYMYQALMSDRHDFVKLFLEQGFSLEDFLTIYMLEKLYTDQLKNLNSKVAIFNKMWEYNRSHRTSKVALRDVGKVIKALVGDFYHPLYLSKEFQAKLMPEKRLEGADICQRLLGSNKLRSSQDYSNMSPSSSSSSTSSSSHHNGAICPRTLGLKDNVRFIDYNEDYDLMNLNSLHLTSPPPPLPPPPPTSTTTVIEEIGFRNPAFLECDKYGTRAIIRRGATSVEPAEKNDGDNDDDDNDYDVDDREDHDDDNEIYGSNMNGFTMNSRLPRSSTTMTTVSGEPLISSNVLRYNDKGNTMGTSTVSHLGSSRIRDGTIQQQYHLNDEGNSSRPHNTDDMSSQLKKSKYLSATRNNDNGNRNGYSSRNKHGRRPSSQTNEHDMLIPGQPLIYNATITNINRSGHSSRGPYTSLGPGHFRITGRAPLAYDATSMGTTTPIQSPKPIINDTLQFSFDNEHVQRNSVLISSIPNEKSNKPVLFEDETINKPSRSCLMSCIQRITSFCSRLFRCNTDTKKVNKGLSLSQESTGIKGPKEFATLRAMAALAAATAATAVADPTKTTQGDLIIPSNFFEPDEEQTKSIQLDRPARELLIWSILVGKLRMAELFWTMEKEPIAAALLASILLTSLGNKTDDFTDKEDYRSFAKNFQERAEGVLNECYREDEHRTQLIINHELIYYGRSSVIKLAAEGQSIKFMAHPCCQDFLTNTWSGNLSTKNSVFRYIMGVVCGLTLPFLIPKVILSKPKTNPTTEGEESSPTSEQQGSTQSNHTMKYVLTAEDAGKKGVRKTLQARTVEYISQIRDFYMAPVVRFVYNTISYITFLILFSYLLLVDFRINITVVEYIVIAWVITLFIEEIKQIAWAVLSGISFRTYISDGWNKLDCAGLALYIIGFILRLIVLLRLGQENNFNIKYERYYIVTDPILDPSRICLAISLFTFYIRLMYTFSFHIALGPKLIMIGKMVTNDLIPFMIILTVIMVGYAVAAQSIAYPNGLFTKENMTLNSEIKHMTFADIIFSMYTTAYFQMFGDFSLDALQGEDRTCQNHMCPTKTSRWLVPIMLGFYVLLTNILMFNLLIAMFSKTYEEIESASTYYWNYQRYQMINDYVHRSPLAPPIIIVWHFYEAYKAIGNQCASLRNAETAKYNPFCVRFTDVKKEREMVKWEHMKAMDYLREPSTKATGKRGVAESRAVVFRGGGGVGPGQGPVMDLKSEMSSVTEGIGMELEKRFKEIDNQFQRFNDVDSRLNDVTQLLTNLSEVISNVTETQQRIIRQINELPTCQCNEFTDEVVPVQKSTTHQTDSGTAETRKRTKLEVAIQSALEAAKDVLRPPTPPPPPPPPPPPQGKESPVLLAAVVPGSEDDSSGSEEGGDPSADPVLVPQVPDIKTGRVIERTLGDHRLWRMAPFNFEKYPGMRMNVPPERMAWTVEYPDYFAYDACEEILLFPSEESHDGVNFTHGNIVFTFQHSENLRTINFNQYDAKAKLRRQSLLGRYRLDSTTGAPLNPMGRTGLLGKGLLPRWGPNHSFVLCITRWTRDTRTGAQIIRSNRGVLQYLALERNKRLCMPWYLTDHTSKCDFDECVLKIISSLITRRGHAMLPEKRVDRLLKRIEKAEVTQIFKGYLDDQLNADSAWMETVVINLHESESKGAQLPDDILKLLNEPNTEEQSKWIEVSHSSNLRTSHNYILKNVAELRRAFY", "experiment": "Ca2+ reporter (FLIPR) activation assay, wild-type Sm.TRPMPZQ in HEK293 cells", "format": "cell-based", "method_in_brief": "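Wild-type Sm.TRPMPZQ in HEK293 cells, with untransfected HEK293 as control. Cells dye-loaded in HBSS/20 mM HEPES buffer with 2.5 mM probenecid, 0.3% BSA and 0.03% ascorbic acid (40 min 37 °C, then 20 min RT). FLIPR Ca²⁺ flux at room temperature: 20 s baseline, then drug addition, then 250 s recording.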"}, "[1]": {"test_system": "HepG2 hepatic epithelial cells", "experiment": "in vitro"}, "in vitro": {"experiment": "in vitro", "conditions": "human, HepG2 cytotoxicity (CC50)"}, "juvenile schistosomes": {"test_system": "juvenile schistosomes", "experiment": "Microscopy analysis of juvenile morphology and motility (viability score 0-3)", "conditions": "72 h"}, "[2]": {"test_system": "adult schistosomes (male and female worms)", "experiment": "Adult worm ex vivo high-content image-based motility assay", "format": "cell-based, Schistosoma mansoni"}, "Eg.TRPMPZQ": {"molecular_target": "Eg.TRPMPZQ (Echinococcus granulosus, UniProt W6UVV9)", "sequence (W6UVV9 entry or part of it)": "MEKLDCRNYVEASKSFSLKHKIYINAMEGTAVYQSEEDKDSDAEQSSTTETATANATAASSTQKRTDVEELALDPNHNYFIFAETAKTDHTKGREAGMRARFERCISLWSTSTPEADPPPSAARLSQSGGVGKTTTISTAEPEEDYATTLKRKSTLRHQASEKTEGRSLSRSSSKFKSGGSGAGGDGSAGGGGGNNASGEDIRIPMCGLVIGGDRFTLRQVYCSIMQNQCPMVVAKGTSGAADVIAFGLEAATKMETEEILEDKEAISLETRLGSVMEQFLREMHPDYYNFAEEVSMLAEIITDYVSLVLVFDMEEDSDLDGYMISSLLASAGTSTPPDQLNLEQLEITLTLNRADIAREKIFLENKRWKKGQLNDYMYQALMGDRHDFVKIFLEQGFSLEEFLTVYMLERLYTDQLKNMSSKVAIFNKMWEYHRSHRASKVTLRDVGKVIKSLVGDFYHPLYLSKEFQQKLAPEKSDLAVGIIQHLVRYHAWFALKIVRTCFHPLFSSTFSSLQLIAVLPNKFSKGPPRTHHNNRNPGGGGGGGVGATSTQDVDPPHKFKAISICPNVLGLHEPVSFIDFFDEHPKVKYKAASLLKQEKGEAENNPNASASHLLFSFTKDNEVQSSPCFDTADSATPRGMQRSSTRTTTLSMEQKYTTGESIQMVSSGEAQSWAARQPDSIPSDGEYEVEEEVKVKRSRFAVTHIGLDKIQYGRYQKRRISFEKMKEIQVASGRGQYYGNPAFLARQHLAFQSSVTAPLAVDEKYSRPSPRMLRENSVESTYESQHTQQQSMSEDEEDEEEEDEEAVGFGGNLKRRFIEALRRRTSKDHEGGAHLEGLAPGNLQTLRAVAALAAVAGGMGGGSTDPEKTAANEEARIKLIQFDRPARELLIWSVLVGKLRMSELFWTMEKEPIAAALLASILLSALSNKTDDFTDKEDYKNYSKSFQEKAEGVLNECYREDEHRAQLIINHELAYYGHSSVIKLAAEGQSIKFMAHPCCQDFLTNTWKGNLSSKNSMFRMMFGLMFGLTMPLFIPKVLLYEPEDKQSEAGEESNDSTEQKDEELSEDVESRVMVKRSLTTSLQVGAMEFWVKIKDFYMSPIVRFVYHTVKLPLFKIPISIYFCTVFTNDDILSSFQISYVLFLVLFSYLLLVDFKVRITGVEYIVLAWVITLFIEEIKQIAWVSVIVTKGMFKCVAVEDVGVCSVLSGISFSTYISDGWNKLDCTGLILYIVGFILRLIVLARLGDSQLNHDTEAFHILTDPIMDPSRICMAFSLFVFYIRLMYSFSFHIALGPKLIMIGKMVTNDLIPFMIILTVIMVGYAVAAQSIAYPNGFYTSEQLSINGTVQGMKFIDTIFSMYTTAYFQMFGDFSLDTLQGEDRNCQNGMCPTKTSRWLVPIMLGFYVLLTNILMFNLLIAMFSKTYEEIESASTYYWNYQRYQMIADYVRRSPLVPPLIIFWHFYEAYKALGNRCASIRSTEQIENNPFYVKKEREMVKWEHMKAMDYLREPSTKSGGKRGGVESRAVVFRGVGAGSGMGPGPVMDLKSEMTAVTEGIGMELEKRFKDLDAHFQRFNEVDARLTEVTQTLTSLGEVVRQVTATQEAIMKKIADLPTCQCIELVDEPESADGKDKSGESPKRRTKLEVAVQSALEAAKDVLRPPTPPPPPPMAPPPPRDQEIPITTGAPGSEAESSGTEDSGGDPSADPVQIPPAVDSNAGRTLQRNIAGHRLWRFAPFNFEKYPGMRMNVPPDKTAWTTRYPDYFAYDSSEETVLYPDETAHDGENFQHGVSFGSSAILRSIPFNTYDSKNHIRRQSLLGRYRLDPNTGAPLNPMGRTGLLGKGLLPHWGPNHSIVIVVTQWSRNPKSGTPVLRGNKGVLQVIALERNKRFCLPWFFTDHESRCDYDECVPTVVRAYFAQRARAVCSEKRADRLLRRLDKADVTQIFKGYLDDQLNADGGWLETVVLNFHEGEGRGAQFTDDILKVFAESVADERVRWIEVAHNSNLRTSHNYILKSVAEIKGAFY", "experiment": "cell-based", "conditions": "HEK293, Ca2+ reporter, mean ± standard deviation; read-out: Bmax, Eg.TRPMPZQ activation"}},
  "note": "Where “and” joins values, the source holds several entries; their conditions need not be identical. Identical values can stand only once. Like-named read-outs stand apart in the source and are kept apart here.",
  "data": [
    {"smiles": "CCCc1cn(-c2ccc3c(c2)C2CN(C(=O)C4CCCCC4)CC(=O)N2CC3)nn1", "note": "(stereo not shown) [Compound 5e]", "values": [
      {"measurement": "activation of Sm.TRPMMCLZ", "setting": "Sm.TRPMMCLZ", "value": "did not activate"},
      {"measurement": "activation of Fh.TRPMPZQ", "setting": "Fh.TRPMPZQ", "value": "did not activate"},
      {"measurement": "EC50", "setting": "Sm.TRPMPZQ (wild-type); 0.001 to 100 μM", "value": "4.23 ± 0.15", "unit": "µM"},
      {"measurement": "Emax", "setting": "Sm.TRPMPZQ (wild-type); read-out: Bmax, wild-type Sm.TRPMPZQ activation", "value": "90.2 ± 1.53", "unit": "%"},
      {"measurement": "Selectivity Index (CC50/EC50), Female", "setting": "[1]; HepG2 CC50 / female worm motility EC50, 48 h", "value": "75.4 and 75"},
      {"measurement": "Selectivity Index (CC50/EC50), Male", "setting": "[1]; HepG2 CC50 / male worm motility EC50, 48 h", "value": "154.7 and 155"},
      {"measurement": "Selectivity Index (SI), sex not specified", "setting": "[1]; HepG2 vs adult worms, 48 h", "value": "> 100"},
      {"measurement": "CC50 at 48 h", "setting": "in vitro", "value": "~300", "unit": "µM"},
      {"measurement": "CC50 at 48 h", "setting": "in vitro; values of independent experiments", "value": 286, "unit": "µM"},
      {"measurement": "number of juvenile worms with viability score 0", "setting": "juvenile schistosomes; 10 μM, Table S1", "value": 61},
      {"measurement": "number of juvenile worms with viability score 1", "setting": "juvenile schistosomes; 10 μM, Table S1", "value": 7},
      {"measurement": "number of juvenile worms with viability score 2", "setting": "juvenile schistosomes; 10 μM, Table S1", "value": 34},
      {"measurement": "number of juvenile worms with viability score 3", "setting": "juvenile schistosomes; 10 μM, Table S1", "value": 6},
      {"measurement": "viability at 10 µM", "setting": "juvenile schistosomes; Schistosoma mansoni, read-out: Relative frequency of viability score 3", "value": 5.6, "unit": "%"},
      {"measurement": "EC50", "setting": "[2]; Schistosoma mansoni, 0 h, female adult worms, 0 h (immediately after addition), single experiment or geometric mean, read-out: Female worm motility inhibition (EC50)", "value": 3500, "unit": "nM"},
      {"measurement": "EC50", "setting": "[2]; Schistosoma mansoni, 0 h, female, 0 h, individual experiments, read-out: Female worm motility inhibition (EC50), values of independent experiments", "value": 2980, "unit": "nM"},
      {"measurement": "EC50", "setting": "[2]; Schistosoma mansoni, 0 h, male adult worms, 0 h (immediately after addition), single experiment or geometric mean, read-out: Male worm motility inhibition (EC50)", "value": 2600, "unit": "nM"},
      {"measurement": "EC50", "setting": "[2]; Schistosoma mansoni, 0 h, male, 0 h, individual experiments, read-out: Male worm motility inhibition (EC50), values of independent experiments", "value": 2500, "unit": "nM"},
      {"measurement": "EC50", "setting": "[2]; Schistosoma mansoni, 24 h, female adult worms, 24 h, single experiment or geometric mean, read-out: Female worm motility inhibition (EC50)", "value": 3600, "unit": "nM"},
      {"measurement": "EC50", "setting": "[2]; Schistosoma mansoni, 24 h, female, 24 h, individual experiments, read-out: Female worm motility inhibition (EC50), values of independent experiments", "value": 3700, "unit": "nM"},
      {"measurement": "EC50", "setting": "[2]; Schistosoma mansoni, 24 h, male adult worms, 24 h, single experiment or geometric mean, read-out: Male worm motility inhibition (EC50)", "value": 2500, "unit": "nM"},
      {"measurement": "EC50", "setting": "[2]; Schistosoma mansoni, 24 h, male, 24 h, individual experiments, read-out: Male worm motility inhibition (EC50), values of independent experiments", "value": 2290, "unit": "nM"},
      {"measurement": "EC50", "setting": "[2]; Schistosoma mansoni, 48 h, female adult worms, 48 h, single experiment or geometric mean, read-out: Female worm motility inhibition (EC50)", "value": 3900, "unit": "nM"},
      {"measurement": "EC50", "setting": "[2]; Schistosoma mansoni, 48 h, female, 48 h, individual experiments, read-out: Female worm motility inhibition (EC50), values of independent experiments", "value": 3140, "unit": "nM"},
      {"measurement": "EC50", "setting": "[2]; Schistosoma mansoni, 48 h, male adult worms, 48 h, single experiment or geometric mean, read-out: Male worm motility inhibition (EC50)", "value": 1900, "unit": "nM"},
      {"measurement": "EC50", "setting": "[2]; Schistosoma mansoni, 48 h, male and female, 48 h, read-out: EC50 against schistosomes (adult motility), span over male and female", "value": "1900 to 3900", "unit": "nM"},
      {"measurement": "EC50", "setting": "[2]; Schistosoma mansoni, 48 h, male, 48 h, individual experiments, read-out: Male worm motility inhibition (EC50), values of independent experiments", "value": 1700, "unit": "nM"},
      {"measurement": "EC50", "setting": "[2]; Schistosoma mansoni, 72 h, female adult worms, 72 h, single experiment or geometric mean, read-out: Female worm motility inhibition (EC50)", "value": 3100, "unit": "nM"},
      {"measurement": "EC50", "setting": "[2]; Schistosoma mansoni, 72 h, female, 72 h, individual experiments, read-out: Female worm motility inhibition (EC50), values of independent experiments", "value": 2940, "unit": "nM"},
      {"measurement": "EC50", "setting": "[2]; Schistosoma mansoni, 72 h, male adult worms, 72 h, single experiment or geometric mean, read-out: Male worm motility inhibition (EC50)", "value": 1700, "unit": "nM"},
      {"measurement": "EC50", "setting": "[2]; Schistosoma mansoni, 72 h, male, 72 h, individual experiments, read-out: Male worm motility inhibition (EC50), values of independent experiments", "value": 1640, "unit": "nM"},
      {"measurement": "EC50", "setting": "[2]; Schistosoma mansoni, female, 0-72 h, read-out: EC50 against female adult worms (motility), span over incubation times", "value": "3100 to 3900", "unit": "nM"},
      {"measurement": "EC50", "setting": "[2]; female, 0 h, individual experiments, read-out: Female worm motility inhibition (EC50), values of independent experiments", "value": 2780, "unit": "nM"},
      {"measurement": "EC50", "setting": "[2]; female, 48 h, individual experiments, read-out: Female worm motility inhibition (EC50), values of independent experiments", "value": 4770, "unit": "nM"},
      {"measurement": "EC50", "setting": "[2]; female, 72 h, individual experiments, read-out: Female worm motility inhibition (EC50), values of independent experiments", "value": 3300, "unit": "nM"},
      {"measurement": "EC50", "setting": "[2]; male, 0 h, individual experiments, read-out: Male worm motility inhibition (EC50), values of independent experiments", "value": 2680, "unit": "nM"},
      {"measurement": "EC50", "setting": "[2]; male, 24 h, individual experiments, read-out: Male worm motility inhibition (EC50), values of independent experiments", "value": "2320 nM and 2840 nM"},
      {"measurement": "EC50", "setting": "[2]; male, 48 h, individual experiments, read-out: Male worm motility inhibition (EC50), values of independent experiments", "value": "2120 nM and 1990 nM"},
      {"measurement": "EC50", "setting": "[2]; male, 72 h, individual experiments, read-out: Male worm motility inhibition (EC50), values of independent experiments", "value": 1990, "unit": "nM"},
      {"measurement": "Emax", "setting": "Eg.TRPMPZQ", "value": "132 ± 15", "unit": "%"}
    ]}
  ]
}
